Data from US20120077813A1, “Imidazole Substituted Pyrimidines Useful in the Treatment of Glycogen Synthase Kinase-3 Related Disorders such as Alzheimer's Disease” (ASTRAZENECA AB, priority 2009, published 2012).
pKi: −log10 of the molar value. Where a name gives a salt, the structure may show the parent alone.

How the values were obtained:
[1] = CaCo-2 permeability assay Alt 1 (pH gradient 6.5/7.4); type: in vitro ADME; details: human, Alt 1: apical to basolateral, pH 6.5 apically, pH 7.4 basolaterally, typically 10 μM, mean value
Description: (§1) CaCo-2 Cell Permeability Assay
(§2) CaCo-2 cells were seeded onto filter membrane at a density of 340500 cells/cm2 for 24 well plates (0.33 cm2/well). The cells were grown in culture medium consisting of Dulbecco's modified Eagle's medium with glucose and L-glutamine supplemented with 10% fetal bovine serum, 100 U/ml penicillin-G, and 100 μg/ml streptomycin and 1% (v/v) 100X non-essential amino acids. The culture medium was replaced every second day and the cells were maintained at 37° C., 95% relative humidity, and 5% CO2. Permeability studies were conducted with the monolayers cultured for 21-28 days with the cell passage numbers between 25 and 50.
Alt 1. the CaCo-2 Permeability Assay Used in Examples 3, 5, 6 and Reference Example.
The CaCo-2 permeabilty assay were performed in the apical to basolateral directions under gradient pH-gradient conditions (pH 6.5 apically, pH 7.4 basolaterally). HBSS containing 25 mM HEPES (pH 7.4) and 25 mM MES (pH 6.5) was used as transport medium. Fully differentiated cell monolayers were washed with transport medium. The drug solutions, typically 10 μM, were prepared in transport medium, pH 6.5 (1% DMSO). The permeability experiment was started by adding 0.2 ml drug solutions on the apical side. The basolateral side contained 0.8 ml of transport medium, pH 7.4. Three inserts with cells and one without were assayed for each drug. Cells were kept in an incubator at 37° C. and shaking. 200 μl samples were taken at 45 and 90 min from the basolateral side. The same volume of transport buffer was added to the basolateral compartments after the first sampling. Compound recovery was assessed by calculating the sum of the cumulatively transported amount and the amount left in the donor side against the initial amount of drug. The samples were analysed online using liquid chromatography tandem mass spectrometry (LC/MS/MS). […] The samples of 25 μl were analysed by liquid scintillation.
(§3) The apparent permeability coefficient is calculated as follows: […]

Cdk2/cyclin E = Cdk2/cyclin E (Homo sapiens, UniProt P24941); test: ATP competition in scintillation proximity Cdk2 assay; type: biochemical; details: mean value; Ki calculated with Km of ATP 0.5 μM
Description: Determination of ATP Competition in Scintillation Proximity Cdk2 Assay.
The competiton experiments were carried out in duplicate with 10 concentrations of the inhibitor in 96 well clear-bottom microtiter plates. Cdk2/cyclin E enzyme was added at a concentration corresponding to a 80 times dilution of the partially purified bacluloviral infected insect cell lysate in a buffer containing 50 mmol/L HEPES, 10 mmol/L MnCl2, 1 mmol/L dithiothreitol (DTT), 100 μmol/L NaF, 100 μmol/L sodium vanadate, 10 mmol/L sodium glycerophosphate, 5 μg/mL aprotinin, 2.5 μg/mL leupeptin and 100 μmol/L PMSF, pH 7.5. Blank controls without enzyme were used. The reaction was initiated by the addition of 1.25 μg GST-Rb, 0.15 μCi [γ-33P]ATP and unlabelled ATP at a final concentration of 0.1 μmol/L. The final assay volume was 50 μL. After incubation for 60 min at room temperature, each reaction was terminated by the addition of 150 μL stop solution containing 45 μL protein A coated SPA beads in 50 mmol/L HEPES, 3.28 mg antiglutathione-S-transferase, and 5.5 mmol/L EDTA and 35 μmol/L ATP. The plate was centrifuged at 2000 rpm for 5 min and the radioactivity was determined in a liquid scintillation counter (1450 MicroBeta Trilux, Perkin Elmer, Finland). The Km value of ATP for Cdk2 used to calculate the inhibition constants (Ki) of the various compounds, was 0.5 μM

recombinant human GSK3β = target: T1, recombinant human GSK3β (Homo sapiens, UniProt P49841); test: ATP competition in scintillation proximity GSK3β assay; type: biochemical; details: for pKi: mean value, Ki calculated with Km of ATP 20 μM; for Selectivity GSK3β vs CDK2: ratio of CDK2 Ki to GSK3β Ki
T1 construct: purchased Dundee University, UK
Description: Determination of ATP Competition in Scintillation Proximity GSK3β Assay.
The inhibition experiments were carried out in duplicate with 10 concentrations of the inhibitor in 384 well clear-bottom microtitre plates. A biotinylated peptide substrate (Biotin-Ala-Ala-Glu-Glu-Leu-Asp-Ser-Arg-Ala-Gly-Ser(PO3H2)-Pro-Gln-Leu (AstraZeneca, Lund)), was added at a final concentration of 1 mmol/L in an assay buffer (pH 7.0) containing 0.1 mU recombinant human GSK3β (Dundee University, UK), (1 nmol/L active enzyme), 10 mmol/L morpholinepropanesulfonic acid (MOPS), 0.3 mmol/L EDTA, 0.01% (v/v) β-mercaptoethanol, 0.003% (w/v) polyethylene 23 lauryl ether (Brij 35), 0.4% glycerol and 0.02 mg bovine serum albumine (BSA) and preincubated for 10 minutes. The reaction was initiated by the addition of 0.06 mCi [γ-33P]ATP (Amersham, UK) and unlabelled ATP in 30 mmol/L Mg(Ac)2 to a final concentration of […] ATP. The final assay volume was […]. Blank controls without peptide substrate were used. After incubation for 15 min at room temperature, the reaction was terminated by the addition of stop solution containing 1.3 mmol/L EDTA, 13 mmol/L ATP, 0.02% Triton™X-100 and 0.15 mg streptavidin coated SPA beads. After a 5 minutes centrifugation at 2000 rpm, the radioactivity was measured in a liquid scintillation counter (1450 MicroBeta Trilux, Perkin Elmer, Finland). The Km value of ATP for GSK3β, used to calculate the inhibition constants (Ki) of the various compounds, was 20 μM.

[2] = CaCo-2 A to B permeability assay Alt 2 (pH 7.4); type: in vitro ADME; details: human, Alt 2: apical to basolateral, pH 7.4, 10 μM, mean value
Description: as §1, §2
Alt 2. the CaCo-2 A to B Permeability Assay Used in Examples 2-4, 7-8.
The CaCo-2 A to B assay was performed in the apical to basolateral direction (each in duplicates) at pH 7.4. HBSS containing 25 mM HEPES (pH 7.4) was used as transport medium. The drug solutions, typically 10 μM, were prepared in transport medium (1% DMSO). Studies of six compounds can be performed in one 24 well plate that generates one 96 deepwell analysis plate (maximum capacity 6 plates=36 compounds and 6 deep well plates). The CaCo-2 cell monolayers were washed once with HBSS for 10 minutes prior to start. Transport buffer, 800 μL, (HBSS, pH 7.4) is first dispensed to the basal side of the monolayer. The assay is then initiated by addition of 225 μL of each compound (10 μM) to the apical side. Samples are withdrawn directly (Donor 0) and at 60 min (Donor end and Receiver 60) post addition of test compound. 25 μL and 150 μL are withdrawn from the donor compartment and the receiver compartment, respectively. During washing-step and incubation with compounds the transwell plates are placed in a shaking incubator at 480 rpm and 37° C. The integrity of the epithelial cell monolayer is monitored by measuring the amount of radiolabelled [^14C]mannitol (low passive paracellular diffusion) in the donor compartment at time 0 min to 60 min. Luma Plate 96-well is used for analysis of [14C]mannitol. Compound recovery was assessed by calculating the sum of the cumulatively transported amount and the amount left in the donor side against the initial amount of drug. The samples were analysed online using liquid chromatography tandem mass spectrometry (LC/MS/MS).
as §3
where ΔQ/Δt is the total amount of substance transported into the receiver chamber per unit time, A is the surface area (cm^2), and C0 the starting donor concentration. The apparent permeability Papp is expressed in ×10-6 cm/sec.

T1 sequence (P49841 whole entry): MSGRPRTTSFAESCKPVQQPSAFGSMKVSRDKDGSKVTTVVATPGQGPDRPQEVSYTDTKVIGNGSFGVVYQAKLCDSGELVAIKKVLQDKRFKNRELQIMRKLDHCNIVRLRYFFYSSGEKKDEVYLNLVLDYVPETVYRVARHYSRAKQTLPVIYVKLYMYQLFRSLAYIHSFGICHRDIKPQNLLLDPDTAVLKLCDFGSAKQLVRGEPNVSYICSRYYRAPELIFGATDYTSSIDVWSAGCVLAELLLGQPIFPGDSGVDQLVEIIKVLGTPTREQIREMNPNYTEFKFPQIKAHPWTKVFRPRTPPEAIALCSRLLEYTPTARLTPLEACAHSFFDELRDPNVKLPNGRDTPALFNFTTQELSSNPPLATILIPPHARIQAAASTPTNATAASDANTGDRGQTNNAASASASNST

| Structure (SMILES) | melting point | Papp A→B at 90 min, 10 µM [1] | pKi (Cdk2/cyclin E) | pKi (recombinant human GSK3β) | Selectivity GSK3β vs CDK2 (recombinant human GSK3β) | Papp A→B at 60 min, 10 µM [2] | Selectivity GSK3β vs CDK2 (recombinant human GSK3β; hydrochloride) |
| --- | --- | --- | --- | --- | --- | --- | --- |
| Cc1ncc(-c2nc(Nc3cc(F)c(CN4CCOCC4)cc3F)ncc2F)n1C1CCOCC1 (as salt: succinate) [Ex 5, N-(2,5-Difluoro-4-(morpholinomethyl)phenyl)-5-fluoro-4-(2-methyl-1-(tetrahydro-2H-pyran-4-yl)-1H-imidazol-5-yl)pyrimidin-2-amine] | 177 °C | – | – | – | – | – | – |
| Cc1ncc(-c2nc(Nc3ccc(CN4CCOCC4)cc3F)ncc2F)n1C1CCOCC1 [Ex 1, 5-Fluoro-N-(2-fluoro-4-(morpholinomethyl)phenyl)-4-(2-methyl-1-(tetrahydro-2H-pyran-4-yl)-1H-imidazol-5-yl)pyrimidin-2-amine] | – | 36 ×10⁻⁶ cm/s | 6.51 | 7.82 | 20 | – | – |
| Cc1ncc(-c2nc(Nc3ccc(CN4CCOC[C@H]4C)cc3F)ncc2F)n1C1CCOCC1 [Ex 2, 5-Fluoro-N-(2-fluoro-4-(((R)-3-methylmorpholino)methyl)phenyl)-4-(2-methyl-1-(tetrahydro-2H-pyran-4-yl)-1H-imidazol-5-yl)pyrimidin-2-amine hydrochloride] | – | – | 6.54 | 8.30 | 58 | 39 ×10⁻⁶ cm/s | – |
| Cc1ncc(-c2nc(Nc3ccc(CN4CCOC[C@@H]4C)cc3F)ncc2F)n1C1CCOCC1 [Ex 3, 5-Fluoro-N-(2-fluoro-4-(((S)-3-methylmorpholino)methyl)phenyl)-4-(2-methyl-1-(tetrahydro-2H-pyran-4-yl)-1H-imidazol-5-yl)pyrimidin-2-amine hydrochloride] | – | – | 6.03 | 7.52 | 31 | 56 ×10⁻⁶ cm/s | – |
| Cc1ncc(-c2nc(Nc3ccc(CN4[C@@H](C)COC[C@@H]4C)cc3F)ncc2F)n1C1CCOCC1 [Ex 4, N-(4-(((3S,5S)-3,5-Dimethylmorpholino)methyl)-2-fluorophenyl)-5-fluoro-4-(2-methyl-1-(tetrahydro-2H-pyran-4-yl)-1H-imidazol-5-yl)pyrimidin-2-amine hydrochloride] | – | – | 6.50 | 7.96 | 29 | 44 ×10⁻⁶ cm/s | – |
| Cc1ncc(-c2nc(Nc3cc(F)c(CN4CCOCC4)cc3F)ncc2F)n1C1CCOCC1 [Ex 5, N-(2,5-Difluoro-4-(morpholinomethyl)phenyl)-5-fluoro-4-(2-methyl-1-(tetrahydro-2H-pyran-4-yl)-1H-imidazol-5-yl)pyrimidin-2-amine] | – | 45 ×10⁻⁶ cm/s | 6.90 | 8.31 | 26 | – | – |
| Cc1ncc(-c2nc(Nc3cc(F)c(CN4CCOCC4)cc3F)ncc2F)n1C1CCOCC1 [Ex 6, N-(2,5-Difluoro-4-(morpholinomethyl)phenyl)-5-fluoro-4-(2-methyl-1-(tetrahydro-2H-pyran-4-yl)-1H-imidazol-5-yl)pyrimidin-2-amine hydrochloride] | – | – | 6.88 | 8.31 | – | – | 27 |
| Cc1ncc(-c2nc(Nc3cc(F)c(CN4CCOC[C@@H]4C)cc3F)ncc2F)n1C1CCOCC1 [Ex 7, N-(2,5-Difluoro-4-(((S)-3-methylmorpholino)methyl)phenyl)-5-fluoro-4-(2-methyl-1-(tetrahydro-2H-pyran-4-yl)-1H-imidazol-5-yl)pyrimidin-2-amine] | – | – | 6.76 | 7.96 | 16 | 44 ×10⁻⁶ cm/s | – |
| Cc1ncc(-c2nc(Nc3cc(F)c(CN4[C@@H](C)COC[C@@H]4C)cc3F)ncc2F)n1C1CCOCC1 [Ex 8, N-(4-(((3S,5S)-3,5-Dimethylmorpholino)methyl)-2,5-difluorophenyl)-5-fluoro-4-(2-methyl-1-(tetrahydro-2H-pyran-4-yl)-1H-imidazol-5-yl)pyrimidin-2-amine] | – | – | 6.65 | 8.11 | 29 | 40 ×10⁻⁶ cm/s | – |
| Cc1ncc(-c2nc(Nc3ccc(CN4CCOCC4)cc3)ncc2F)n1C1CCOCC1 [Reference example, 5-fluoro-4-(2-methyl-1-(tetrahydro-2H-pyran-4-yl)-1H-imidazol-5-yl)-N-(4-(morpholinomethyl)phenyl)pyrimidin-2-amine, reference compound] | – | 26 ×10⁻⁶ cm/s | 6.96 | 8.09 | 14 | – | – |
